Earlier results, collected in patent US10959921B2, “Emulsifying system for microemulsions with high skin tolerance” (Henkel AG & Co. KGaA, priority 2017, dated 2021).

Conditions: concentrations above about 1.5 wt. %

Question: With lauryl glucoside as the substance, how does the “Skin tolerance in leave-on applications” value read?
Answer: The value was “skin intolerances”.
